Assays:
mice [1] = assay: lethal dose in mice; type: in vivo
Procedure: The grayanotoxins have been described in exhaustive terms in literature and the chemical formulae are known. It has become evident that the effects of the substance occur even for low concentrations of the active agent. The lethal dose for grayanotoxin 1 in mice is approx. 5.1 mg per kg live weight and for grayanotoxin 3 approx. 4.9 mg per kg live weight. The substance as an active agent carrier may contain natural and/or synthetic carrier substances or substance mixtures. Natural carrier substances may be preferably selected from the group of natural oils, waxes and honey and their mixtures, emulsions, solutions or dispersions.

mice [2] = assay: experiments on development of resistance in mice; type: in vivo

Question: Which lethal dose (mice [1]) does the source give for CC(=O)O[C@@H]1[C@H]2CC[C@H]3[C@@](C)(O)[C@@H]4C[C@H](O)C(C)(C)[C@@]4(O)[C@H](O)C[C@@]13C[C@@]2(C)O [grayanotoxin 1] here?
Answer: approx. 5.1 mg per kg live weight

Question: Which development of resistance (mice [2]) does the source give for grayanotoxin here?
Answer: rare for mice to develop a resistance

Question: Which lethal dose (mice [1]) does the source give for grayanotoxin 3 here?
Answer: approx. 4.9 mg per kg live weight
